System: KRAS PDC tumor spheroids (HUVEC+MSC), viability
Test: Anticancer human tumor 254851-301-R-J1-PDC patient-derived colon carcinoma cell line growth inhibition [KRAS2]
Conditions: for IC50: curve of first compound; for viability, T/C: stronger effect = lower value
In short: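 Combination screen of spheroid viability in tumor-cell co-cultures with endothelial (HUVEC) and mesenchymal stem cell stroma. Each agent was tested in half-log dilutions, topping at clinical Cmax or at 10 microM without a known Cmax.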

[1] = second compound 0.0316 µM, first compound 0.000316 µM
[2] = second compound 0.0316 µM, first compound 0.001 µM
[3] = second compound 0.0316 µM, first compound 0.00316 µM
[4] = second compound 0.0316 µM, first compound 0.01 µM
[5] = second compound 0.0316 µM, first compound 0.0316 µM
[6] = second compound 0.1 µM, first compound 0.000316 µM
[7] = second compound 0.1 µM, first compound 0.001 µM
[8] = second compound 0.1 µM, first compound 0.00316 µM
[9] = second compound 0.1 µM, first compound 0.01 µM
[10] = second compound 0.1 µM, first compound 0.0316 µM
[11] = second compound 0.316 µM, first compound 0.000316 µM
[12] = second compound 0.316 µM, first compound 0.001 µM
[13] = second compound 0.316 µM, first compound 0.00316 µM
[14] = second compound 0.316 µM, first compound 0.01 µM
[15] = second compound 0.316 µM, first compound 0.0316 µM
[16] = second compound 1 µM, first compound 0.000316 µM
[17] = second compound 1 µM, first compound 0.001 µM
[18] = second compound 1 µM, first compound 0.00316 µM
[19] = second compound 1 µM, first compound 0.01 µM
[20] = second compound 1 µM, first compound 0.0316 µM
[21] = second compound 3.16 µM, first compound 0.000316 µM
[22] = second compound 3.16 µM, first compound 0.001 µM
[23] = second compound 3.16 µM, first compound 0.00316 µM
[24] = second compound 3.16 µM, first compound 0.01 µM
[25] = second compound 3.16 µM, first compound 0.0316 µM
[26] = second compound 0.1 µM, first compound 0.1 µM
[27] = second compound 0.1 µM, first compound 0.316 µM
[28] = second compound 0.1 µM, first compound 1 µM
[29] = second compound 0.1 µM, first compound 3.16 µM
[30] = second compound 0.1 µM, first compound 10 µM
[31] = second compound 0.316 µM, first compound 0.1 µM
[32] = second compound 0.316 µM, first compound 0.316 µM
[33] = second compound 0.316 µM, first compound 1 µM
[34] = second compound 0.316 µM, first compound 3.16 µM
[35] = second compound 0.316 µM, first compound 10 µM
[36] = second compound 1 µM, first compound 0.1 µM
[37] = second compound 1 µM, first compound 0.316 µM
[38] = second compound 1 µM, first compound 1 µM
[39] = second compound 1 µM, first compound 3.16 µM
[40] = second compound 1 µM, first compound 10 µM
[41] = second compound 3.16 µM, first compound 0.1 µM
[42] = second compound 3.16 µM, first compound 0.316 µM
[43] = second compound 3.16 µM, first compound 1 µM
[44] = second compound 3.16 µM, first compound 3.16 µM
[45] = second compound 3.16 µM, first compound 10 µM
[46] = second compound 0.0316 µM, first compound 0.1 µM
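Further: spheroids exposed to compounds for seven days before readout.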
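Wherever viability, T/C is given: 100% = DMSO vehicle control luminescence of the spheroids.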

For `CC(=O)Nc1cccc(-n2c(=O)n(C3CC3)c(=O)c3c(Nc4ccc(I)cc4F)n(C)c(=O)c(C)c32)c1` + C=CC(=O)N1CCN(c2nc(OCC3CCCN3C)nc3c2CCN(c2cccc4cccc(C)c24)C3)CC1CC#N, the IC50 (second compound 0.0316 µM) was 5.65 nM, the IC50 (second compound 0.1 µM) was 5.79 nM and the IC50 (second compound 0.316 µM) was 6.32 nM. The IC50 (second compound 1 µM) was 5.71 nM, the IC50 (second compound 3.16 µM) was 0.569 nM and the viability, T/C (second compound 0.0316 µM, first compound 0.0001 µM) was 103%. It also gave a viability, T/C [1] of 94.3%, a viability, T/C [2] of 89.5% and a viability, T/C [3] of 72.1%. It also gave a viability, T/C [4] of 29.2%, a viability, T/C [5] of 3.04% and a viability, T/C (second compound 0.1 µM, first compound 0.0001 µM) of 98.1%. For the same compound, the viability, T/C [6] was 106%, the viability, T/C [7] was 95.4% and the viability, T/C [8] was 77.9%. The viability, T/C [9] was 25.1%, the viability, T/C [10] was 2.8% and the viability, T/C (second compound 0.316 µM, first compound 0.0001 µM) was 102%. For the same compound, the viability, T/C [11] was 114%, the viability, T/C [12] was 93.5% and the viability, T/C [13] was 84.9%. For the same compound, the viability, T/C [14] was 27.5%, the viability, T/C [15] was 2.51% and the viability, T/C (second compound 1 µM, first compound 0.0001 µM) was 106%. The viability, T/C [16] was 109%, the viability, T/C [17] was 92.6% and the viability, T/C [18] was 83.4%. For the same compound, the viability, T/C [19] was 19.1%, the viability, T/C [20] was 1.86% and the viability, T/C (second compound 3.16 µM, first compound 0.0001 µM) was 76.9%. It also gave a viability, T/C [21] of 52.7%, a viability, T/C [22] of 40.3% and a viability, T/C [23] of 39.5%. It also gave a viability, T/C [24] of 0.5% and a viability, T/C [25] of 0.93%.

For `CCNC(=O)CC1N=C(c2ccc(Cl)cc2)c2cc(OC)ccc2-n2c(C)nnc21` (stereo not given) + CC1OCC2(CCN(c3cnc(Sc4ccnc(N)c4Cl)c(N)n3)CC2)C1N, the IC50 (second compound 0.1 µM) was > 10000 nM, the IC50 (second compound 0.316 µM) was > 10000 nM and the IC50 (second compound 1 µM) was > 10000 nM. The IC50 (second compound 3.16 µM) was 5860 nM, the IC50 (second compound 10 µM) was > 10000 nM and the viability, T/C [10] was 111%. The viability, T/C [26] was 103%, the viability, T/C [27] was 99.9% and the viability, T/C [28] was 95.6%. The viability, T/C [29] was 94.9%, the viability, T/C [30] was 77.2% and the viability, T/C [15] was 94.2%. For the same compound, the viability, T/C [31] was 108%, the viability, T/C [32] was 81.9% and the viability, T/C [33] was 89.5%. It also gave a viability, T/C [34] of 77.8%, a viability, T/C [35] of 68.5% and a viability, T/C [20] of 84.8%. The viability, T/C [36] was 83.3%, the viability, T/C [37] was 93.1% and the viability, T/C [38] was 73.9%. For the same compound, the viability, T/C [39] was 86.1%, the viability, T/C [40] was 65.6% and the viability, T/C [25] was 73%. It also gave a viability, T/C [41] of 69.3%, a viability, T/C [42] of 73% and a viability, T/C [43] of 67%. The viability, T/C [44] was 58.9%, the viability, T/C [45] was 42% and the viability, T/C (second compound 10 µM, first compound 0.0316 µM) was 70.5%. The viability, T/C (second compound 10 µM, first compound 0.1 µM) was 67.4%, the viability, T/C (second compound 10 µM, first compound 0.316 µM) was 57.8% and the viability, T/C (second compound 10 µM, first compound 1 µM) was 56.5%. It also gave a viability, T/C (second compound 10 µM, first compound 3.16 µM) of 56.5% and a viability, T/C (second compound 10 µM, first compound 10 µM) of 50.5%.

`CN(C)C/C=C/C(=O)Nc1cc2c(Nc3ccc(F)c(Cl)c3)ncnc2cc1O[C@H]1CCOC1` + C=CC(=O)N1CCN(c2nc(OCC3CCCN3C)nc3c2CCN(c2cccc4cccc(C)c24)C3)CC1CC#N was tested, and the IC50 (second compound 0.0316 µM) was > 100 nM, the IC50 (second compound 0.1 µM) was > 100 nM and the IC50 (second compound 0.316 µM) was > 100 nM. For the same compound, the IC50 (second compound 1 µM) was > 100 nM, the IC50 (second compound 3.16 µM) was > 100 nM and the viability, T/C [1] was 97.2%. It also gave a viability, T/C [2] of 99.7%, a viability, T/C [3] of 94.7% and a viability, T/C [4] of 96.7%. It also gave a viability, T/C [5] of 97.9%, a viability, T/C [46] of 78.7% and a viability, T/C [6] of 105%. It also gave a viability, T/C [7] of 101%, a viability, T/C [8] of 88.5% and a viability, T/C [9] of 92.6%. It also gave a viability, T/C [10] of 97.7%, a viability, T/C [26] of 69.7% and a viability, T/C [11] of 101%. It also gave a viability, T/C [12] of 97.8%, a viability, T/C [13] of 92.6% and a viability, T/C [14] of 75%. The viability, T/C [15] was 89.3%, the viability, T/C [31] was 74.5% and the viability, T/C [16] was 104%. The viability, T/C [17] was 97.9%, the viability, T/C [18] was 91.4% and the viability, T/C [19] was 95.9%. For the same compound, the viability, T/C [20] was 96.7%, the viability, T/C [36] was 82.3% and the viability, T/C [21] was 67.5%. The viability, T/C [22] was 61.5%, the viability, T/C [23] was 51.8% and the viability, T/C [24] was 54.6%. It also gave a viability, T/C [25] of 62.6% and a viability, T/C [41] of 52.1%.

For `CC(C)NCC(C(=O)N1CCN(c2ncnc3c2C(C)CC3O)CC1)c1ccc(Cl)cc1` (stereo not given) + C=CC(=O)N1CCN(c2nc(OCC3CCCN3C)nc3c2CCN(c2cccc4cccc(C)c24)C3)CC1CC#N, the IC50 (second compound 0.0316 µM) was > 10000 nM, the IC50 (second compound 0.1 µM) was > 10000 nM and the IC50 (second compound 0.316 µM) was > 10000 nM. For the same compound, the IC50 (second compound 1 µM) was > 10000 nM, the IC50 (second compound 3.16 µM) was 85.7 nM and the viability, T/C [5] was 96.9%. It also gave a viability, T/C [46] of 96.1%, a viability, T/C (second compound 0.0316 µM, first compound 0.316 µM) of 87.4% and a viability, T/C (second compound 0.0316 µM, first compound 1 µM) of 98.2%. It also gave a viability, T/C (second compound 0.0316 µM, first compound 3.16 µM) of 95.8%, a viability, T/C (second compound 0.0316 µM, first compound 10 µM) of 94.7% and a viability, T/C [10] of 107%. It also gave a viability, T/C [26] of 101%, a viability, T/C [27] of 99.9% and a viability, T/C [28] of 77.1%. The viability, T/C [29] was 89.9%, the viability, T/C [30] was 92.1% and the viability, T/C [15] was 97.7%. For the same compound, the viability, T/C [31] was 93.9%, the viability, T/C [32] was 92% and the viability, T/C [33] was 95.9%. The viability, T/C [34] was 88.8%, the viability, T/C [35] was 87.6% and the viability, T/C [20] was 95.4%. It also gave a viability, T/C [36] of 98.5%, a viability, T/C [37] of 91.6% and a viability, T/C [38] of 86.3%. For the same compound, the viability, T/C [39] was 97.9%, the viability, T/C [40] was 86.2% and the viability, T/C [25] was 62%. The viability, T/C [41] was 48.2%, the viability, T/C [42] was 37% and the viability, T/C [43] was 18.1%. The viability, T/C [44] was 22.6% and the viability, T/C [45] was 8.5%.
